From ChEMBL document CHEMBL5674870, “Uropathogenic E. coli (UPEC) Infection Induces Proliferation through Enhancer of Zeste Homologue 2 (EZH2)” (PLoS One, 2016)
Activity calls are given as the source filed them. The calls are words filed in the database; no cut-off is given here.

Tests used:
[1] = molecular target: Histone-lysine N-methyltransferase EZH2 (Homo sapiens) (UniProt Q15910); assay: Inhibition of EZH2 in human HT-5637 cells assessed as decrease in uropathogenic Escherichia coli infection-induced host cell proliferation at 500 nM measured 24 to 72 hrs after infection by immunofluorescence analysis; format: cell-based; settings: time 24-72 hrs
Chain of Histone-lysine N-methyltransferase EZH2 (Homo sapiens) (Q15910 whole entry, looked up): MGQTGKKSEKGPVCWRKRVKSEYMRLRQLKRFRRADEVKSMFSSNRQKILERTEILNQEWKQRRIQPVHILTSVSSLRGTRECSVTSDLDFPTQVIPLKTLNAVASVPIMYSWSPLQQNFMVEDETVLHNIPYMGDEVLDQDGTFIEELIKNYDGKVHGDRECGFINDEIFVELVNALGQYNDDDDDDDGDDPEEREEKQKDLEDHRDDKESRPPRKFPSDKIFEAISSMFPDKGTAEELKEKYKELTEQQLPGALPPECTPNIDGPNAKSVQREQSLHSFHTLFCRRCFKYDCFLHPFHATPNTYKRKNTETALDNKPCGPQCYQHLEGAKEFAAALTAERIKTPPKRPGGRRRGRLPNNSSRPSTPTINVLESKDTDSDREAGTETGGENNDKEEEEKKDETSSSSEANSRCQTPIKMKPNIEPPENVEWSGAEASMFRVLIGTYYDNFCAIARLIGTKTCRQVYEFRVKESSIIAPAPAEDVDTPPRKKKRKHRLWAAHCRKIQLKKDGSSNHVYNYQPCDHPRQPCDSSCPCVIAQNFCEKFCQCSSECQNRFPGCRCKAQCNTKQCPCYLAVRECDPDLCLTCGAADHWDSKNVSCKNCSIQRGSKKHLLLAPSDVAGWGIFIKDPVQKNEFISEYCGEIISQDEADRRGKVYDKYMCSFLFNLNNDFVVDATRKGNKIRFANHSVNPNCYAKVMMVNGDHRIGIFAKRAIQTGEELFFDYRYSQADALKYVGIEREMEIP

[2] = molecular target: Histone-lysine N-methyltransferase EZH2 (Homo sapiens) (UniProt Q15910); assay: Inhibition of EZH2 in human HT-5637 cells assessed as decrease in uropathogenic Escherichia coli infection-induced WNT3A mRNA level by qRT-PCR analysis; format: cell-based
[3] = Inhibition of KDM6A/6B in human HT-5637 cells assessed as increase in uropathogenic Escherichia coli infection-induced host cell proliferation at 100 nM measured 24 to 72 hrs after infection by immunofluorescence analysis; format: toxicity, cell-based; settings: human, 5637, 0.1 µM, time 24-72 hrs
[4] = Inhibition of KDM6A/6B in human HT-5637 cells assessed as increase in uropathogenic Escherichia coli infection-induced WNT3A mRNA level by qRT-PCR analysis; format: toxicity, cell-based

Row | inhibition [1] | inhibition [2] | SMILES | inhibition (INH) [3] | inhibition (INH) [4]
1 | Active | Active | CCCc1cc(C)[nH]c(=O)c1CNC(=O)c1cc(-c2ccc(N3CCN(C(C)C)CC3)nc2)cc2c1cnn2C(C)C |  | 
2 |  |  | CCOC(=O)CCNc1cc(N2CCc3ccccc3CC2)nc(-c2ccccn2)n1 | Active | Active
